Experimental data: PubChem BioAssay (NCI)
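48-hour exposure; five concentrations; linearly interpolated endpoints. At the GI50, growth is halved. Definition used: TGI = concentration required for complete inhibition of growth.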

Key:
Assay in all cases: inhibition of tumour cell growth, NCI panel, 48 h
U251 CNS = tested on: U251 CNS
SN12C renal = tested on: SN12C renal
OVCAR-5 ovarian = tested on: OVCAR-5 ovarian
SF-295 CNS = tested on: SF-295 CNS
SW-620 colon = tested on: SW-620 colon
OVCAR-8 ovarian = tested on: OVCAR-8 ovarian
COLO 205 colon = tested on: COLO 205 colon
SNB-19 CNS = tested on: SNB-19 CNS
A498 renal = tested on: A498 renal
A549 NSCLC = tested on: A549 NSCLC

| SMILES | TGI (U251 CNS) [µM] | TGI (SN12C renal) [µM] | TGI (OVCAR-5 ovarian) [µM] | TGI (SF-295 CNS) [µM] | TGI (SW-620 colon) [µM] | TGI (OVCAR-8 ovarian) [µM] | TGI (COLO 205 colon) [µM] | TGI (SNB-19 CNS) [µM] | TGI (A498 renal) [µM] | TGI (A549 NSCLC) [µM] | GI50 (SNB-19 CNS) [µM] | GI50 (A498 renal) [µM] | GI50 (SN12C renal) [µM] | GI50 (OVCAR-5 ovarian) [µM] | GI50 (SF-295 CNS) [µM] | GI50 (SW-620 colon) [µM] | GI50 (OVCAR-8 ovarian) [µM] | GI50 (COLO 205 colon) [µM] | GI50 (A549 NSCLC) [µM] |
| --- | --- | --- | --- | --- | --- | --- | --- | --- | --- | --- | --- | --- | --- | --- | --- | --- | --- | --- | --- |
| CC1CC2=C(S(=O)(=O)c3ccccc3)CC(S(=O)(=O)c3ccccc3)(S(=O)(=O)c3ccccc3)CC21 (centres undefined) | > 100 | > 100 | > 100 | > 100 | > 100 | > 100 | > 100 | > 100 | > 100 | > 100 |  |  |  |  |  |  |  |  |  |
| CCOC(=O)Cn1c(=O)ccn(COCCO)c1=O | > 100 | > 100 | > 100 |  | > 100 | > 100 | > 100 | > 100 | > 100 | > 100 |  |  |  |  |  |  |  |  |  |
| Clc1ccc(C[P+](c2ccccc2)(c2ccccc2)c2ccccc2)c(Cl)c1 | 18.8 | 12.4 | 18.9 | 12.3 | 21.4 | 20.1 | 2.44 | 13 | 30.6 | 32.5 |  |  |  |  |  |  |  |  |  |
| C[C@@H]1Nc2cc(NC(=O)OCCF)nc(N)c2N=C1c1ccccc1 | 12.2 | > 100 | > 100 | 20.1 | > 100 | 30 | < 0.0001 |  |  | 46.6 | < 0.0001 | < 0.0001 |  |  |  |  |  |  |  |
| CCOC(=O)CNC(=O)N(CC)C12CC3CC(CC(C3)C1)C2 | 239 | 414 | 369 | 304 | 297 | 417 | 227 | 430 | 274 | 602 |  |  |  |  |  |  |  |  |  |
| CCOC(=O)c1ccc(N[C@@H]2c3cc4c(cc3C(c3cc(OC)c(O)c(OC)c3)[C@H]3C(=O)OCC32)OCO4)cc1O (some centres undefined) |  |  | > 100 | 2.96 | > 48.2 | > 21.9 | 7.69 | > 25.9 | 2.81 | 2.51 |  |  |  |  |  |  |  |  |  |
| COc1cc2oc(-c3ccc(O)cc3)c(OC)c(=O)c2c(O)c1OC | > 100 | > 100 | > 100 | > 100 | > 100 | > 100 | > 100 | > 100 | > 100 | > 100 | > 100 | 11 | 33.7 | > 100 | 36.1 | > 100 | 86.1 | 32.1 | 58.6 |
| CCOP(=O)(OCC)C(c1ccc(F)cc1)N(C(=O)NC(F)(F)F)c1cccc(C(F)(F)F)c1 (centres undefined) | > 100 | > 100 | > 100 | > 100 | > 100 | > 100 | > 100 | > 100 | > 100 | > 100 |  |  |  |  |  |  |  |  |  |
| CCC(C)NC1=NCC(C)S1 (centres undefined) | > 100 | > 100 | > 100 | > 100 | > 100 |  | > 100 | > 100 | > 100 | > 100 |  |  |  |  |  |  |  |  |  |
| COCCCNc1nc(N)c(C#N)c(C#N)c1C#N | > 10 | > 10 | > 10 | > 10 | > 10 | > 10 | > 10 | > 10 | > 10 | > 10 |  |  |  |  |  |  |  |  |  |
| COc1ccc(S(=O)(=O)c2ccccc2[N+](=O)[O-])cc1 | > 100 | > 100 | > 100 | > 100 | > 100 | > 100 | > 100 | > 100 | > 100 | > 100 |  |  |  |  |  |  |  |  |  |
| CC1CCCCNC1=S (centres undefined) | > 10 | > 10 | > 10 | > 10 | > 10 | > 10 |  | > 10 | > 10 | > 10 |  |  |  |  |  |  |  |  |  |
| CC(=O)Nc1ccc(/C=C/c2ccc(NC(=O)Nc3ccc(/C=C/c4ccc(NC(C)=O)cc4S(=O)(=O)O)c(S(=O)(=O)O)c3)cc2S(=O)(=O)O)c(S(=O)(=O)O)c1 | > 100 | > 100 | > 100 | > 100 | > 100 | > 100 | > 100 | > 100 | > 100 | > 100 |  |  |  |  |  |  |  |  |  |
